# From PubChem BioAssay (NCI)
#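 Each compound was tested at five concentrations against cells in 96-well plates for 48 hours. At the GI50, growth is halved. At the TGI there is no net growth.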
# What was measured:
# Experiment in all cases: NCI-60 cell line screen, 48 h
# [1] = test system: HT29 colon
# [2] = test system: CAKI-1 renal
# [3] = test system: K-562 leukemia
# [4] = test system: UACC-62 melanoma
# [5] = test system: SW-620 colon
# [6] = test system: UO-31 renal
# [7] = test system: NCI-H460 lung
# [8] = test system: SN12C renal
# [9] = test system: SNB-19 CNS
# [10] = test system: SF-268 CNS
Structure (SMILES),GI50 [1],TGI [1],GI50 [2],TGI [2],GI50 [3],TGI [3],GI50 [4],TGI [4],GI50 [5],TGI [5],GI50 [6],TGI [6],GI50 [7],TGI [7],GI50 [8],TGI [8],GI50 [9],TGI [9],GI50 [10],TGI [10]
Cc1oc2nc[nH]c(=O)c2c1C(=O)/C=C/c1ccc(Cl)cc1,2.9 µM,10.6 µM,3.06 µM,22.8 µM,1.82 µM,11.3 µM,1.64 µM,5.37 µM,2.53 µM,7.19 µM,1.09 µM,11 µM,2.56 µM,7.03 µM,2.79 µM,14.2 µM,3.28 µM,13.7 µM,3.17 µM,16.8 µM
O=C(C/C(=N\NC(=O)C[n+]1ccccc1)C(=O)Nc1nc2ccc([N+](=O)[O-])cc2s1)CC(c1ccccc1)c1c(O)c2ccccc2oc1=O (stereo not given),–,> 100 µM,–,> 100 µM,–,> 100 µM,–,> 100 µM,–,> 100 µM,–,> 100 µM,–,> 100 µM,–,> 100 µM,–,> 100 µM,–,> 100 µM
CC(C)(C)N/N=C(\Cc1occc(=O)c1O)C(=O)Nc1ccc([N+](=O)[O-])cc1[N+](=O)[O-],–,> 100 µM,–,> 100 µM,–,> 100 µM,–,> 100 µM,–,> 100 µM,–,> 100 µM,–,> 100 µM,–,> 100 µM,–,> 100 µM,–,> 100 µM
C=C[C@@]1(C)CCC2(O)C(CCC3C2(C)CCC[C@@]3(C)COC(=O)CC(=O)OC)C1 (stereo not given in full),–,33.2 µM,–,> 100 µM,–,63.5 µM,–,32.3 µM,–,31.7 µM,–,> 100 µM,–,> 100 µM,–,38.2 µM,–,> 100 µM,–,55.3 µM
O=c1oc2cc(N=Cc3ccccc3Cl)ccc2c2ccccc12,–,> 100 µM,–,> 100 µM,–,> 100 µM,–,> 100 µM,–,> 100 µM,–,> 100 µM,–,> 100 µM,–,> 100 µM,–,> 100 µM,–,> 100 µM
COc1ccc(C2=Nc3ccccc3SC(C)C2)cc1 (stereo not given),–,> 100 µM,–,> 100 µM,–,83.3 µM,–,> 100 µM,–,> 100 µM,–,> 100 µM,–,> 100 µM,–,> 100 µM,–,> 100 µM,–,> 100 µM
N#CC(C#N)=Cc1c(-c2ccccc2)[nH]c2ccccc12,0.526 µM,> 53.9 µM,5.66 µM,48.7 µM,0.478 µM,> 100 µM,2.24 µM,> 46.5 µM,0.523 µM,> 35.1 µM,11 µM,> 75.6 µM,2.02 µM,> 39.8 µM,5.82 µM,> 73.3 µM,5.71 µM,> 100 µM,8.81 µM,> 46.2 µM
COc1cc2c(c(OC)c1OC)C(=O)CC(c1cccc(NC(=O)c3ccc(Br)cc3)c1)O2 (stereo not given),2.77 µM,> 100 µM,2.25 µM,> 100 µM,1.4 µM,> 100 µM,1.57 µM,4.09 µM,3.83 µM,> 100 µM,1.49 µM,> 100 µM,3.27 µM,> 100 µM,3.06 µM,> 100 µM,4.25 µM,> 100 µM,2.57 µM,> 100 µM
C=C1C(=O)O[C@H]2[C@H]1CC/C(Cn1cc(CNCCc3c[nH]c4ccc(Cl)cc34)nn1)=C\CC[C@@]1(C)O[C@@H]21,3.32 µM,11.2 µM,15.2 µM,28.7 µM,2.91 µM,25.2 µM,4.65 µM,16.9 µM,1.82 µM,3.88 µM,6.23 µM,19.4 µM,49.1 µM,> 100 µM,2.54 µM,8.24 µM,8.69 µM,32.4 µM,12.5 µM,33.6 µM
CCOC(=O)c1cc(/C=C/C(C)=C/C(=O)OC)oc1-c1ccccc1,–,> 100 µM,–,> 100 µM,–,> 100 µM,–,> 100 µM,–,> 100 µM,–,> 100 µM,–,> 100 µM,–,> 100 µM,–,> 100 µM,–,> 100 µM
COc1cc(/C=N/Nc2ncnc3c2cnn3C(C)C)ccc1O,8.18 µM,> 25 µM,6.43 µM,> 25 µM,7.2 µM,> 25 µM,6.98 µM,> 20.9 µM,8.41 µM,> 25 µM,3.56 µM,17.3 µM,8.34 µM,> 25 µM,8.27 µM,> 25 µM,17 µM,> 25 µM,7.68 µM,> 22.8 µM
[N-]=[N+]=Nc1ccc(CCN2CCN(c3cccc(C(F)(F)F)c3)CC2)cc1I,–,> 100 µM,–,> 100 µM,–,> 100 µM,–,> 100 µM,–,> 100 µM,–,> 100 µM,–,> 100 µM,–,> 100 µM,–,> 100 µM,–,> 100 µM
Oc1c(C(Nc2cccc3ccccc23)c2ccccc2)ccc2cccnc12 (stereo not given),5.57 µM,> 100 µM,2.15 µM,6.54 µM,3.8 µM,> 100 µM,2.82 µM,39.6 µM,3.73 µM,24 µM,1.62 µM,23 µM,2.07 µM,18.5 µM,4.1 µM,> 100 µM,5.64 µM,> 100 µM,3.04 µM,28.7 µM
NC(=O)c1cc(-c2ccncc2)cc(-c2ccccc2)c1N,> 25 µM,> 25 µM,8.34 µM,> 25 µM,> 20.1 µM,> 25 µM,> 24.1 µM,> 25 µM,> 25 µM,> 25 µM,6.41 µM,> 25 µM,22.6 µM,> 25 µM,12.9 µM,> 25 µM,> 25 µM,> 25 µM,> 25 µM,> 25 µM
COc1ccc(-c2nn(-c3ccc(NC(=O)c4ccc(Cl)c(C(F)(F)F)c4)cc3)cc2-c2ccncc2)cc1Cl,0.337 µM,1.96 µM,0.335 µM,2.08 µM,0.706 µM,> 100 µM,1.07 µM,5.02 µM,1.06 µM,> 100 µM,0.566 µM,> 24.7 µM,0.441 µM,> 100 µM,2.34 µM,> 100 µM,1.96 µM,> 100 µM,0.896 µM,> 100 µM
NC1=NC(c2ccc(Cl)cc2)N(c2ccc(S(=O)(=O)Nc3ncccn3)cc2)C(N)=N1 (stereo not given),–,> 100 µM,–,> 100 µM,–,> 100 µM,–,> 100 µM,–,> 100 µM,–,> 100 µM,–,> 100 µM,–,> 100 µM,–,> 100 µM,–,> 100 µM
N#CNC(N)=NCCO,–,> 100 µM,–,> 100 µM,–,> 100 µM,–,> 100 µM,–,35.9 µM,–,> 100 µM,–,> 100 µM,–,> 100 µM,–,> 100 µM,–,> 100 µM
O=C1c2ccccc2NC(c2cc(Cl)cc(Cl)c2O)N1CCc1ccccn1 (stereo not given),–,> 100 µM,–,> 100 µM,–,> 100 µM,–,> 100 µM,–,> 100 µM,–,> 100 µM,–,> 100 µM,–,> 100 µM,–,> 100 µM,–,> 100 µM
COc1cc(-c2nn(-c3ccc(NC(=O)Nc4ccc(Cl)c(Cl)c4)cc3)cc2-c2ccncc2)ccc1Cl,3.52 µM,17.1 µM,2.59 µM,7.68 µM,3.51 µM,> 100 µM,3.35 µM,13.3 µM,4.3 µM,19.4 µM,2.74 µM,11.3 µM,2.42 µM,5.64 µM,3.96 µM,> 100 µM,5.29 µM,> 100 µM,4.57 µM,> 100 µM
CN(CCC#N)c1ccc(/C=C(\C#N)c2cccc(C(F)(F)F)c2)cc1,2.58 µM,11.3 µM,4.24 µM,> 100 µM,2.69 µM,> 100 µM,3.96 µM,> 100 µM,3.17 µM,> 100 µM,2.27 µM,> 100 µM,3.76 µM,> 100 µM,4.17 µM,> 100 µM,17 µM,> 100 µM,6.66 µM,> 100 µM
Cc1ccc(C2CC(c3ccc([N+](=O)[O-])cc3)=Nc3ccccc3S2)cc1 (stereo not given),–,95.5 µM,–,> 100 µM,–,41.5 µM,–,> 100 µM,–,46.6 µM,–,> 100 µM,–,> 100 µM,–,> 100 µM,–,> 100 µM,–,> 100 µM
O=C(/C=C/C12c3ccccc3C(c3ccccc31)C1C(=O)N(c3ccccc3)C(=O)C12)c1ccc(Cl)cc1 (stereo not given),1.86 µM,7.88 µM,1.02 µM,3.52 µM,1.55 µM,> 100 µM,1.66 µM,4.58 µM,2.27 µM,> 100 µM,1.12 µM,2.47 µM,1.64 µM,3.7 µM,2.34 µM,> 100 µM,2.68 µM,> 100 µM,4.56 µM,> 100 µM
C=CCn1c(=O)c2cnc(Nc3ccc(N4CCN(C)CC4)cc3)nc2n1-c1ccc2c(n1)[C@@](O)(CC)CC2,0.261 µM,4.49 µM,0.113 µM,20.5 µM,0.325 µM,> 34.8 µM,0.504 µM,16.4 µM,0.525 µM,> 100 µM,0.36 µM,6.96 µM,1.94 µM,16.7 µM,0.507 µM,> 55.7 µM,1.85 µM,> 100 µM,2.07 µM,> 63.5 µM
Cc1csc(/C=N/NC(=O)c2nnn(-c3ccnc4c(C(F)(F)F)cccc34)c2C)c1,10.1 µM,82.5 µM,64.6 µM,> 100 µM,35 µM,> 100 µM,74.7 µM,> 100 µM,> 100 µM,> 100 µM,> 100 µM,> 100 µM,> 100 µM,> 100 µM,71.4 µM,> 100 µM,97.3 µM,> 100 µM,> 100 µM,> 100 µM
O=C1c2cccc3cc([N+](=O)[O-])cc(c23)C(=O)N1NC1=NCCN1,–,> 100 µM,–,> 100 µM,–,> 100 µM,–,> 100 µM,–,> 100 µM,–,> 100 µM,–,> 100 µM,–,> 100 µM,–,> 100 µM,–,> 100 µM
CC[C@@]1(OC(=O)CN)C(=O)OCc2c1cc1n(c2=O)Cc2cc3cc4c(cc3nc2-1)OCO4,< 0.01 µM,–,< 0.01 µM,–,< 0.01 µM,–,< 0.01 µM,0.105 µM,< 0.01 µM,–,< 0.01 µM,0.111 µM,< 0.01 µM,0.0238 µM,< 0.01 µM,0.563 µM,< 0.01 µM,92.8 µM,< 0.01 µM,–
Cc1cc(Cc2cc(C)c(O)c(C)c2)cc(C)c1O,8.87 µM,33.8 µM,3.74 µM,21.6 µM,1.76 µM,18.8 µM,5.41 µM,62.6 µM,3.03 µM,> 100 µM,7.65 µM,96.6 µM,3.33 µM,11.8 µM,5.12 µM,> 100 µM,7.81 µM,> 100 µM,7.85 µM,86.2 µM
CCCN(CCCN)/[N+]([O-])=N\O,–,> 100 µM,–,> 100 µM,–,> 100 µM,–,0.831 µM,–,> 100 µM,–,> 100 µM,–,> 100 µM,–,> 100 µM,–,> 100 µM,–,> 100 µM
COC(=O)C1CC(=O)CCC1c1ccccc1 (stereo not given),–,> 100 µM,–,> 100 µM,–,> 100 µM,–,> 100 µM,–,> 100 µM,–,> 100 µM,–,> 100 µM,–,> 100 µM,–,> 100 µM,–,> 100 µM
CC(=O)Nc1ccc(-c2c3nc(c(-c4cc5ccccc5[n+](C)c4)c4ccc([nH]4)c(-c4ccc(NC(C)=O)cc4)c4nc(c(-c5cc6ccccc6[n+](C)c5)c5ccc2[nH]5)C=C4)C=C3)cc1,40.3 µM,> 50 µM,4.81 µM,29.7 µM,20.1 µM,> 50 µM,23.9 µM,> 50 µM,23.6 µM,> 50 µM,10.6 µM,33.6 µM,13.8 µM,> 50 µM,7.09 µM,23.2 µM,10.9 µM,49.1 µM,35 µM,> 50 µM
